From PubChem BioAssay (NCI) come the findings set out here.

Test systems include CAKI-1 renal; IGROV1 ovarian; K-562 leukemia; MCF7 breast; NCI-H226 lung; RXF 393 renal; SF-268 CNS; SK-MEL-2 melanoma; SNB-19 CNS; UACC-257 melanoma.
Experiment in all cases: inhibition of tumour cell growth, NCI panel, 48 h

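Compound exposure: 48 hours, 5 concentrations, 96-well plates. Here, GI50 denotes the concentration required for 50% inhibition of growth. At the TGI there is no net growth.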

Regarding `O=C(Nc1ccc(Br)c(Cl)c1)c1cc(F)ccc1O`, the GI50 in the assay with CAKI-1 renal is 0.826 µM; with IGROV1 ovarian, 0.682 µM; in the assay on K-562 leukemia, 0.293 µM; with MCF7 breast, 0.883 µM; with NCI-H226 lung, 0.651 µM; in the assay with RXF 393 renal, 1.06 µM. In addition, the GI50 was 0.996 µM in the assay on SF-268 CNS, 0.558 µM with SK-MEL-2 melanoma, 0.729 µM in the assay on SNB-19 CNS and 0.526 µM in the assay with UACC-257 melanoma. For the same compound, the TGI was 3.46 µM in the assay with CAKI-1 renal; over 50 µM in the assay on IGROV1 ovarian; over 50 µM in the assay with K-562 leukemia; over 50 µM in the assay on MCF7 breast; 2.69 µM with NCI-H226 lung; 3.97 µM in the assay with RXF 393 renal. The TGI in the assay with SF-268 CNS is over 33.6 µM; in the assay with SK-MEL-2 melanoma, 2.08 µM; in the assay on SNB-19 CNS, over 50 µM; in the assay on UACC-257 melanoma, 2.79 µM.
Consider `CCN(CC)CCOc1cc2c(C(=O)OC)c(C)oc2cc1C(C)=O`, for which the GI50 in the assay with CAKI-1 renal was 14.2 µM; in the assay on IGROV1 ovarian, 8.53 µM; in the assay on K-562 leukemia it was 4.7 µM; in the assay on MCF7 breast, 22.8 µM; in the assay with NCI-H226 lung, 11.4 µM; in the assay with RXF 393 renal, 17.9 µM. The GI50 was 13.6 µM with SF-268 CNS, 33.3 µM with SK-MEL-2 melanoma, 15.8 µM in the assay on SNB-19 CNS and 13 µM with UACC-257 melanoma. Besides, the TGI came to 31.2 µM in the assay with CAKI-1 renal; 33 µM in the assay on IGROV1 ovarian; 29.2 µM in the assay with K-562 leukemia; 45.2 µM in the assay with MCF7 breast; 25.2 µM with NCI-H226 lung; 41 µM in the assay on RXF 393 renal. Besides, the TGI with SF-268 CNS was 32.6 µM; with SK-MEL-2 melanoma, over 100 µM; with SNB-19 CNS, 32.2 µM; in the assay with UACC-257 melanoma it was 31.7 µM.
`CN1CCN(Cc2ccc(NC(=O)c3cncc(C#Cc4c(N)ncc5cc(F)ccc45)c3)cc2C(F)(F)F)CC1`: the GI50 with CAKI-1 renal is 3.3 µM; with IGROV1 ovarian, 0.813 µM; with K-562 leukemia, 0.005 µM; in the assay with MCF7 breast it was 0.591 µM; in the assay on NCI-H226 lung, 0.442 µM; with RXF 393 renal it was 0.836 µM. The GI50 is 0.884 µM with SF-268 CNS, 1.44 µM with SK-MEL-2 melanoma, 0.87 µM with SNB-19 CNS and 0.975 µM with UACC-257 melanoma. Also, the TGI with CAKI-1 renal is 10.1 µM; in the assay with IGROV1 ovarian it was 3.02 µM; in the assay with K-562 leukemia, 1.09 µM; with MCF7 breast, 1.35 µM; in the assay on NCI-H226 lung, 8.56 µM; in the assay with RXF 393 renal, 1.57 µM. Also, the TGI in the assay with SF-268 CNS came out at 1.9 µM; in the assay with SK-MEL-2 melanoma it was 6.14 µM; with SNB-19 CNS, 1.57 µM; with UACC-257 melanoma, 2.4 µM.
For `CCOC(=O)c1cc2ncccc2c2ccccc12`, the TGI with CAKI-1 renal, in the assay with IGROV1 ovarian, in the assay with K-562 leukemia, with MCF7 breast, in the assay on NCI-H226 lung and with RXF 393 renal was over 100 µM throughout. In addition, the TGI in the assay on SF-268 CNS, in the assay on SK-MEL-2 melanoma, in the assay on SNB-19 CNS and with UACC-257 melanoma was over 100 µM each time.
As for `O=C(O)CC1(C(=O)O)CCCCC1`, the TGI with CAKI-1 renal, with IGROV1 ovarian, with K-562 leukemia, in the assay on MCF7 breast, in the assay on NCI-H226 lung and with RXF 393 renal was over 100 µM in each case. Besides, the TGI with SF-268 CNS, in the assay on SK-MEL-2 melanoma, with SNB-19 CNS and in the assay on UACC-257 melanoma was over 100 µM throughout.
Turning to `CN(CCC(=O)O)S(=O)(=O)c1ccccc1`, the TGI with CAKI-1 renal, in the assay on IGROV1 ovarian, with K-562 leukemia, in the assay with MCF7 breast, in the assay on NCI-H226 lung and with RXF 393 renal was over 100 µM each time. The TGI in the assay with SF-268 CNS, with SK-MEL-2 melanoma, with SNB-19 CNS and with UACC-257 melanoma was over 100 µM each time.
